According to patent US11981669B2, “1,7-naphthyridine derivative and preparation method and use therefor” (CSPC ZHONGQI PHARMACEUTICAL TECHNOLOGY (SHIJIAZHUANG) CO., …, priority 2018, dated 2024):

What was measured:
CYP2C9 = CYP2C9 (Homo sapiens (Human), UniProt P11712); experiment: CYP enzyme inhibition assay; type: in vitro ADME
Excerpt: (§1) The compounds of the present disclosure were subjected to the CYP450 enzyme inhibition assay.

CYP2D6 = CYP2D6 (Homo sapiens (Human), UniProt P10635); experiment: CYP enzyme inhibition assay; type: in vitro ADME
Excerpt: as §1

CYP2C19 = CYP2C19 (Homo sapiens (Human), UniProt P33261); experiment: CYP enzyme inhibition assay; type: in vitro ADME
Excerpt: as §1

PHD3 = PHD3 (Homo sapiens (Human), UniProt Q9H6Z9); experiment: PHD enzyme assay (Eu-VBC TR-fluorescence); type: biochemical
Experimental: (§2) VHL/elongin B/elongin C were constructed, expressed and purified, and VHL was labeled. PHD1, PHD2 and PHD3 were constructed, expressed and purified. VBC protein was labeled with DELFIA Eu-Labeling Kit. A NeutrAvidin 96-well plate was blocked after the addition of 200 μL Blocker Casein to each well, followed by incubation for 30 min. Each well was washed 3 times by adding 200 μL of washing buffer each time. A 200 nM HIF-1a 556-574 solution was prepared with washing buffer, and 100 μL of the solution was added to each well, followed by incubation for 60 min. Each well was washed 3 times by adding 200 μL of washing buffer each time. A 1 mM Biotin solution was prepared with Blocker Casein, and 100 μL of the solution was added to each well, followed by incubation for 30 min. Each well was washed 3 times by adding 200 μL of washing buffer each time. A 20× compound solution was prepared with PHD reaction buffer, with the final concentration of DMSO being 1%. PHD solutions were prepared with PHD reaction buffer, and the concentrations of PHD1, 2, and 3 solutions were 10 ng/μL, 5 ng/μL, and 15 ng/μL, respectively. 95 μL of the PHD solution was added to each compound well, followed by the addition of 5 μL of the compound solution, 95 μL of the PHD solution was added to each full active well, followed by the addition of 5 μL of the PHD reaction buffer; and 100 μL of the PHD reaction buffer was added to each blank well. After mixing homogeneously, the wells were incubated for 60 min. Each well was washed 3 times by adding 200 μL of washing buffer each time A 1 ng/μL Eu-VBC solution was prepared with Eu-VBC binding buffer, and 100 μL of the solution was added to each well, followed by incubation for 60 min. Each well was washed 6 times by adding 200 μL DELFIA Wash Concentrate each time. 100 μL DELFIA Enhancement Solution was added to each well. A microplate reader was used to read TR-Fluorescence at Ex340 and Em615. The flurescence of the sample wells was recorded as FLUsample, the flurescence of the full active wells was recorded as FLU100%, and the flurescence of the blank well was recorded as FLU0%.

PHD1 = PHD1 (Homo sapiens (Human), UniProt Q96KS0); experiment: PHD enzyme assay (Eu-VBC TR-fluorescence); type: biochemical
Experimental: as §2

Chain of PHD3 (Q9H6Z9 whole entry): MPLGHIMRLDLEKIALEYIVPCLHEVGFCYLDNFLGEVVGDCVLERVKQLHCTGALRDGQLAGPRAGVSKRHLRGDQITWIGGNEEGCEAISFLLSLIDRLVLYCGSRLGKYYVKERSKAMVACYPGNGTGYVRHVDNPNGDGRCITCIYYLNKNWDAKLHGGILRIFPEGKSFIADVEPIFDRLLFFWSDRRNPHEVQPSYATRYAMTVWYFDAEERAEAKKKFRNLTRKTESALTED
Chain of PHD1 (Q96KS0 whole entry): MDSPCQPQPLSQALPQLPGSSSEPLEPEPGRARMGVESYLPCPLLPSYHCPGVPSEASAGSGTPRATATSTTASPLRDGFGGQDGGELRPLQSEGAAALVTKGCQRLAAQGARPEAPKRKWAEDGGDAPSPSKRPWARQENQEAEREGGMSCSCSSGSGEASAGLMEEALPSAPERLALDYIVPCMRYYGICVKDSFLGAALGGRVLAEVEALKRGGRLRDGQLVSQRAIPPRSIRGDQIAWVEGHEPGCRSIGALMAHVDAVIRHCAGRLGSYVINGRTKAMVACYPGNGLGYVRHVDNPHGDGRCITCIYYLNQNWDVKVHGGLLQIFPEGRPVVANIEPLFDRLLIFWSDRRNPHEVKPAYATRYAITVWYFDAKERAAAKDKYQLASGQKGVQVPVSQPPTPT
Chain of CYP2C9 (P11712 whole entry): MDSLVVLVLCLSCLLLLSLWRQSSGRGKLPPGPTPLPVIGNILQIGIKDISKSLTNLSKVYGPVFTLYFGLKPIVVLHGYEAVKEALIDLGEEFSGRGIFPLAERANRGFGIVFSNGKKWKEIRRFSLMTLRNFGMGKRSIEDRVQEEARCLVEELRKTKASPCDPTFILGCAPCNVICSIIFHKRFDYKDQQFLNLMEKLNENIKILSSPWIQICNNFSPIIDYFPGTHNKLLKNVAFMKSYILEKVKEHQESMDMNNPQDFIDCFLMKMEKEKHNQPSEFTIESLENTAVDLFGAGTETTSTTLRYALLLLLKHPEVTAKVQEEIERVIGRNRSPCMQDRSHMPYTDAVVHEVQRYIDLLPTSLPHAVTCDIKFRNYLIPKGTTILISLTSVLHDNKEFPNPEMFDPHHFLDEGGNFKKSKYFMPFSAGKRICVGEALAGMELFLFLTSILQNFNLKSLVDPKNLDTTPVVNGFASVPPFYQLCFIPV
Chain of CYP2C19 (P33261 whole entry): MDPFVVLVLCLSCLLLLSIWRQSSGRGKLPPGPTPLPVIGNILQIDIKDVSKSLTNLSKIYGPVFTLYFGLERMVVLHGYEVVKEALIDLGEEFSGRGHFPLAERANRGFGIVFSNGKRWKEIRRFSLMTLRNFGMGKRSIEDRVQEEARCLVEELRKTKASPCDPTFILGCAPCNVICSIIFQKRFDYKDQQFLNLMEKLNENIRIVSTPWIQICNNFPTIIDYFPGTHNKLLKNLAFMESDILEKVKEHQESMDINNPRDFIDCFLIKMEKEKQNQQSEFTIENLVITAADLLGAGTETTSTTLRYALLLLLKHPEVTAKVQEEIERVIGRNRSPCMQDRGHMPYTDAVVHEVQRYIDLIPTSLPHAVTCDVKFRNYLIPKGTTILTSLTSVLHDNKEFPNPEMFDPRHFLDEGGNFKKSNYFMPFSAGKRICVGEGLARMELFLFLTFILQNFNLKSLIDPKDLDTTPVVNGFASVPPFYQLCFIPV
Chain of CYP2D6 (P10635 whole entry): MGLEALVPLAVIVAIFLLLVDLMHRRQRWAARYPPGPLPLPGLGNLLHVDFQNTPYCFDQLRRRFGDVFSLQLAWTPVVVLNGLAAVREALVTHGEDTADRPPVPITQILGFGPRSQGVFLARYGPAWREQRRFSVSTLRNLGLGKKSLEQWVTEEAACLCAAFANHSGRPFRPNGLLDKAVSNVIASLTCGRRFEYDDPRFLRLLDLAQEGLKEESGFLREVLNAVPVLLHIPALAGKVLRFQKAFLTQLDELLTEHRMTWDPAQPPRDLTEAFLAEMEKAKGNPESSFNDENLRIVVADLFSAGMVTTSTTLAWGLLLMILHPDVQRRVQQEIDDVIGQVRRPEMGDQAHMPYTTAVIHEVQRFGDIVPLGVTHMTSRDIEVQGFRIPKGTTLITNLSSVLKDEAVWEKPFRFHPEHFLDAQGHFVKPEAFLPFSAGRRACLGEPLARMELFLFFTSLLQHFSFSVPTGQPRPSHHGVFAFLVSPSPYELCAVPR

Structure (SMILES) | IC50 (CYP2C9) | IC50 (CYP2D6) | IC50 (CYP2C19) | Effect on PHD3 compared with compounds of Comparative Examples 1-3 (PHD3) | IC50 (PHD3) | Effect on PHD1 compared with compounds of Comparative Examples 1-3 (PHD1) | IC50 (PHD1)
O=C(O)CNC(=O)c1nc(Cl)c2nc(Oc3ccccc3)ccc2c1O [Link-118, 2-(2-phenoxy-5-hydroxy-8-chloro-1,7-naphthyridine-6-formamido) Acetic Acid] | > 50000 nM | > 50000 nM | > 50000 nM | better effect | 72.8 nM | better effect | 46.9 nM
O=C(O)CNC(=O)c1nc(Br)c2nc(Oc3ccccc3)ccc2c1O [Link-121, 2-(2-phenoxy-5-hydroxy-8-bromo-1,7-naphthyridine-6-formamido) Acetic Acid] | > 50000 nM | > 50000 nM | > 50000 nM | better effect | 95.6 nM | better effect | 40.3 nM
